Test results published in the NIST ThermoML archive (doi:10.1021/je100081v).
± gives the expanded uncertainty stated by the source.

Settings: Liquid

Row | Compound | vapor or sublimation pressure (469.15 K) | vapor or sublimation pressure (509.95 K)
1 | OCCO [1,2-ethanediol] | 101.32 ± 0.19 kPa | 
2 | O=CN1CCOCC1 [N-formylmorpholine] |  | 101.32 ± 0.2 kPa
